The results in this text go back to patent US9458153B2, “Dihydroquinolizinones for the treatment and prophylaxis of hepatitis B virus infection” (Hoffmann-La Roche Inc., priority 2014, dated 2016).

pIC50: −log10 of the molar value. Structures can show the parent of a compound that is named as a salt.

For the first assay, the system named is HBsAg. The assay can be described thus: HBsAg assay (chemiluminescence immunoassay of secreted HBsAg in HepG2.2.15 culture supernatant). The assay is classed as cell-based, HBV. The conditions noted are these: HBsAg secretion reduced by 50% vs no drug control; HepG2.2.15 cells; CLIA kit. As for the experimental part: HepG2.2.15 cells (Acs et al. Proc Natl Acad Sci USA, 84, (1987), 4641-4), a constitutively HBV-expressing cell line were cultured in DMEM+Glutamax-I medium (Invitrogen, Carlsbad, Calif., USA), supplemented with 10% fetal bovine serum (Invitrogen) and G418 (Invitrogen) at a final concentration of 200 mg/L and maintained in 5% CO2 at 37° C.
HepG2.2.15 cells were seeded in duplicate into white, 96-well plates at 1.5×10^4 cells/well. The cells were treated with a three-fold serial dilution series of the compounds in DMSO. The final DMSO concentration in all wells was 1% and DMSO was used as no drug control.
The HBsAg chemiluminescence immunoassay (CLIA) kit (Autobio Diagnostics Co., Zhengzhou, China, Catalog number: CL0310-2) was used to measure the levels of secreted HBV antigens semi-quantitatively. For the detection 50 μL/well culture supernatant was used and HBsAg was quantified using HBsAg chemiluminescence immunoassay (CLIA) kit (Autobio Diagnostics Co., Zhengzhou, China, Catalog number: CL0310-2), 50 μL of the supernatant was transferred to the CLIA assay plate and 50 μL of enzyme conjugate reagent was added into each well. The plates were sealed and gently agitated for 1 hour at room temperature. The supernatant-enzyme-mixture was discarded and wells were washed 6 times with 300 μL of PBS. The residual liquid was removed by plating the CLIA plate right side down on absorbent tissue paper. 25 μL of substrates A and B were added to each well. Luminance was measured using a luminometer (Mithras LB 940 Multimode Microplate Reader) after 10 minutes incubation. Dose-response curves were generated and the IC50 value was extrapolated by using the E-WorkBook Suite (ID Business Solutions Ltd., Guildford, UK).
The compounds of the present invention were tested for their capacity to inhibit HBsAg as described herein.
The term pIC50 denotes the negative decadic logarithm of the IC50, by convention in mol/L. Molecule `CCC1Cc2cc(OCc3ccccc3)c(C)cc2-c2cc(=O)c(C(=O)O)cn21` (single isomer, unassigned; (-)) [Example 117, (−)-9-benzyloxy-6-ethyl-10-methyl-2-oxo-6,7-dihydrobenzo[a]quinolizine-3-carboxylic acid] showed a pIC50 of 6.04. `COc1cc2c(cc1OCCCS(C)(=O)=O)CC(C(C)(C)C)n1cc(C(=O)O)c(=O)cc1-2` (stereo not shown) [Example 186, 6-tert-butyl-10-methoxy-9-(3-methylsulfonylpropoxy)-2-oxo-6,7-dihydrobenzo[a]quinolizine-3-carboxylic acid]: the pIC50 is 7.70. Same read-out and setting: the result for `COCCCOc1cc2c(c(F)c1F)-c1cc(=O)c(C(=O)O)cn1C(C(C)C)C2` (single isomer, unassigned; (+)) [Example 214, (+)-10,11-difluoro-6-isopropyl-9-(3-methoxypropoxy)-2-oxo-6,7-dihydrobenzo[a]quinolizine-3-carboxylic acid] reads 7.82; that for `CCC1Cc2cc(OC)c(C3CC3)cc2-c2cc(=O)c(C(=O)O)cn21` (single isomer, unassigned; (-)) [Example 91, (−)-10-cyclopropyl-6-ethyl-9-methoxy-2-oxo-6,7-dihydrobenzo[a]quinolizine-3-carboxylic acid], 6.30.

With `COCCCOc1cc2c(cc1Cl)-c1cc(=O)c(C(=O)O)cn1C(C(C)(C)C)C2` (stereo not shown) [Example 202, 6-tert-butyl-10-chloro-9-(3-methoxypropoxy)-2-oxo-6,7-dihydrobenzo[a]quinolizine-3-carboxylic acid], the negative-log IC50 (pIC50) was 8.70. The same measure, in the same setting: the figure for `COc1cc2c(cc1OCC(C)(C)CO)CC(C(C)C)n1cc(C(=O)O)c(=O)cc1-2` (single isomer, unassigned; (-)) [Example 146, (−)-9-(3-hydroxy-2,2-dimethyl-propoxy)-6-isopropyl-10-methoxy-2-oxo-6,7-dihydrobenzo[a]quinolizine-3-carboxylic acid] is 6.28; for `COc1cc2c(cc1OCC(F)F)CC(C(C)C)n1cc(C(=O)O)c(=O)cc1-2` (single isomer, unassigned; (-)) [Example 143, (−)-9-(2,2-difluoroethoxy)-6-isopropyl-10-methoxy-2-oxo-6,7-dihydrobenzo[a]quinolizine-3-carboxylic acid] it is 6.72.

Molecule `CCC1Cc2cc(OCCOC)c(OC)cc2-c2cc(=O)c(C(=O)O)cn21` (stereo not shown) [Example 27, 6-ethyl-10-methoxy-9-(2-methoxyethoxy)-2-oxo-6,7-dihydrobenzo[a]quinolizine-3-carboxylic acid] had a negative logarithm of the IC50 (pIC50) of 7.25. The molecule `COCCCOc1cc2c(cc1OC)-c1cc(=O)c(C(=O)O)cn1C(C(C)(C)C)C2` (stereo not shown) [Example 131, 6-tert-butyl-10-methoxy-9-(3-methoxypropoxy)-2-oxo-6,7-dihydrobenzo[a]quinolizine-3-carboxylic acid] gave a negative-log IC50 (pIC50) of 9.00.

The molecule `COc1cc2c(cc1OC)-c1cc(=O)c(C(=O)O)cn1C(C)C2` (single isomer, unassigned; (-)) [Example 68, (−)-9,10-dimethoxy-6-methyl-2-oxo-6,7-dihydrobenzo[a]quinolizine-3-carboxylic acid] showed a pIC50 of 5.25. `CCC1Cc2cc(OCC(C)(C)CO)c(OC)cc2-c2cc(=O)c(C(=O)O)cn21` (single isomer, unassigned; (+)) [Example 23, (+)-6-ethyl-9-(3-hydroxy-2,2-dimethyl-propoxy)-10-methoxy-2-oxo-6,7-dihydrobenzo[a]quinolizine-3-carboxylic acid] had a pIC50 of 7.92. `CCC1Cc2cc(OCCCOC)c(OC)cc2-c2cc(=O)c(C(=O)O)cn21` (single isomer, unassigned; (+)) [Example 40, (+)-6-ethyl-10-methoxy-9-(3-methoxypropoxy)-2-oxo-6,7-dihydrobenzo[a]quinolizine-3-carboxylic acid] showed a pIC50 of 7.89. Turning to `COc1cc2c(cc1OCC(C)(C)CO)CC(C(C)C)n1cc(C(=O)O)c(=O)cc1-2` (stereo not shown) [Example 144, 9-(3-hydroxy-2,2-dimethyl-propoxy)-6-isopropyl-10-methoxy-2-oxo-6,7-dihydrobenzo[a]quinolizine-3-carboxylic acid], the pIC50 was 7.59. Same read-out and setting: the result for `COc1cc2c(cc1OCC(F)(F)F)CC(C(C)C)n1cc(C(=O)O)c(=O)cc1-2` (single isomer, unassigned; (+)) [Example 127, (+)-6-isopropyl-10-methoxy-2-oxo-9-(2,2,2-trifluoroethoxy)-6,7-dihydrobenzo[a]quinolizine-3-carboxylic acid] reads 8.10; that for `COc1cc2c(cc1OCCCCCO)CC(C(C)(C)C)n1cc(C(=O)O)c(=O)cc1-2` (single isomer, unassigned; (+)) [Example 153, (+)-6-tert-butyl-9-(5-hydroxypentoxy)-10-methoxy-2-oxo-6,7-dihydrobenzo[a]quinolizine-3-carboxylic acid], 9.00. Still for that read-out and setting: the result for `COc1cc2c(cc1OCC(C)(C)CO)CC(C(C)(C)C)n1cc(C(=O)O)c(=O)cc1-2` (single isomer, unassigned; (+)) [Example 150, (+)-6-tert-butyl-9-(3-hydroxy-2,2-dimethyl-propoxy)-10-methoxy-2-oxo-6,7-dihydrobenzo[a]quinolizine-3-carboxylic acid] reads 8.70; that for `CCOc1cc2c(cc1OCC)-c1cc(=O)c(C(=O)O)cn1C(CC)C2` (single isomer, unassigned; (-)) [Example 7, (−)-9,10-diethoxy-6-ethyl-2-oxo-6,7-dihydrobenzo[a]quinolizine-3-carboxylic acid], 5.72. The molecule `COc1cc2c(cc1OC)-c1cc(=O)c(C(=O)O)cn1C(C)C2` (stereo not shown) [Example 66, 9,10-dimethoxy-6-methyl-2-oxo-6,7-dihydrobenzo[a]quinolizine-3-carboxylic acid] had a pIC50 of 6.37. This pIC50 lies 0.65 log units higher than the previous one. As for `COCCOc1cc2c(cc1Cl)-c1cc(=O)c(C(=O)O)cn1C(CC(C)C)C2` (single isomer, unassigned; (-)) [Example 106, (−)-10-chloro-6-isobutyl-9-(2-methoxyethoxy)-2-oxo-6,7-dihydrobenzo[a]quinolizine-3-carboxylic acid], the pIC50 was 5.14.

Staying with this assay, now noted: HBsAg secretion reduced by 50% vs no drug control; HepG2.2.15 cells; CLIA kit; hydrochloride.
`COc1cc2c(cc1OCCCN1CCOCC1)CC(C(C)(C)C)n1cc(C(=O)O)c(=O)cc1-2` (stereo not shown) [Example 192, 6-tert-butyl-10-methoxy-9-(3-morpholinopropoxy)-2-oxo-6,7-dihydrobenzo[a]quinolizine-3-carboxylic acid hydrochloride] showed a negative logarithm of the IC50 (pIC50) of 8.00.

The assay is the same for the next values; noted with them: Hepatitis B virus, HepG2.2.15, HBsAg secretion reduced by 50% vs no drug control; HepG2.2.15 cells; CLIA kit.
For the molecule `COc1cc2c(cc1OCCCOCCN)CC(C(C)(C)C)n1cc(C(=O)O)c(=O)cc1-2` (stereo not shown) [Example 178, 9-[3-(2-aminoethoxy)propoxy]-6-tert-butyl-10-methoxy-2-oxo-6,7-dihydrobenzo[a]quinolizine-3-carboxylic acid], the pIC50 was 7.20. The same measure, in the same setting: the figure for `CCC1Cc2cc(OC)c(OC)cc2-c2cc(=O)c(C(=O)O)cn21` (stereo not shown) [Example 70, 6-ethyl-9,10-dimethoxy-2-oxo-6,7-dihydrobenzo[a]quinolizine-3-carboxylic acid] is 7.15.

`CCC1Cc2cc(C)c(C)cc2-c2cc(=O)c(C(=O)O)cn21` (stereo not shown) [Example 112, 6-ethyl-9,10-dimethyl-2-oxo-6,7-dihydrobenzo[a]quinolizine-3-carboxylic acid] had a pIC50 of 6.85.

`CC[C@@H]1[C@@H](C)c2cc(OCCOC)c(Cl)cc2-c2cc(=O)c(C(=O)O)cn21` (relative stereo) [Example 212A, (6R*, 7S*)-10-chloro-6-ethyl-9-(2-methoxyethoxy)-7-methyl-2-oxo-6,7-dihydrobenzo[a]quinolizine-3-carboxylic acid] gave a negative-log IC50 (pIC50) of 6.48. Same read-out and setting: the result for `CCC1Cc2cc(OCCOCCOC)c(OC)cc2-c2cc(=O)c(C(=O)O)cn21` (stereo not shown) [Example 19, 6-ethyl-10-methoxy-9-[2-(2-methoxyethoxyl)ethoxy]-2-oxo-6,7-dihydrobenzo[a]quinolizine-3-carboxylic acid] reads 6.60. The same measure, in the same setting: the figure for `CCNCCOCCCOc1cc2c(cc1OC)-c1cc(=O)c(C(=O)O)cn1C(C(C)(C)C)C2` (stereo not shown) [Example 179, 6-tert-butyl-9-[3-[2-(ethylamino)ethoxy]propoxy]-10-methoxy-2-oxo-6,7-dihydrobenzo[a]quinolizine-3-carboxylic acid] is 7.42; for `CCC1Cc2cc(OCC3(C#N)CC3)c(OC)cc2-c2cc(=O)c(C(=O)O)cn21` (stereo not shown) [Example 57, 9-[(1-cyanocyclopropyl)methoxy]-6-ethyl-10-methoxy-2-oxo-6,7-dihydrobenzo[a]quinolizine-3-carboxylic acid] it is 6.77.

As to `C#CCOc1cc2c(cc1OC)-c1cc(=O)c(C(=O)O)cn1C(CC)C2` (stereo not shown) [Example 17, 6-ethyl-10-methoxy-2-oxo-9-prop-2-ynoxy-6,7-dihydrobenzo[a]quinolizine-3-carboxylic acid], the pIC50 is 6.72.
